Source: US20240270821A1, “GIP/GLP1/GCG TRI-RECEPTOR AGONISTS AND USES THEREOF” (priority 2023, published 2024)
Where two headings read alike, the source gives them in different places. Starred links: 1 amine or outer side, 2 acyl side, 3 side chain; linkers in the order of their positions; H or OH if unused. Non-standard residues stand in square brackets, D forms with d. Groups on a side chain read outwards from the residue. *: point of attachment. C18 diacid = O=C(O)CCCCCCCCCCCCCCCCC(=O)*; αMePhe(2-F) = C[C@](N)(Cc1ccccc1F)C(=O)O; γGlu = O=C(O)[C@H](CCC(=O)[*:2])N[*:1]; αMe4Pal = C[C@](N)(Cc1ccncc1)C(=O)O; αMeY = C[C@](N)(Cc1ccc(O)cc1)C(=O)O; 4Pal = N[C@@H](Cc1ccncc1)C(=O)O; αMeL = CC(C)C[C@](C)(N)C(=O)O; αMeS = C[C@](N)(CO)C(=O)O; Orn = NCCC[C@H](N)C(=O)O; AEEA = NCCOCCOCC(=O)O; Aib = CC(C)(N)C(=O)O

How the values were obtained:
Type in all cases: cell-based
hGIPR [1] = biological target: T1, hGIPR (Homo sapiens, UniProt P48546); test: Functional cAMP activity in the presence of 1% HSA; details: read-out: cAMP Rel EC50, hGIPR
T1 sequence (P48546 22-466): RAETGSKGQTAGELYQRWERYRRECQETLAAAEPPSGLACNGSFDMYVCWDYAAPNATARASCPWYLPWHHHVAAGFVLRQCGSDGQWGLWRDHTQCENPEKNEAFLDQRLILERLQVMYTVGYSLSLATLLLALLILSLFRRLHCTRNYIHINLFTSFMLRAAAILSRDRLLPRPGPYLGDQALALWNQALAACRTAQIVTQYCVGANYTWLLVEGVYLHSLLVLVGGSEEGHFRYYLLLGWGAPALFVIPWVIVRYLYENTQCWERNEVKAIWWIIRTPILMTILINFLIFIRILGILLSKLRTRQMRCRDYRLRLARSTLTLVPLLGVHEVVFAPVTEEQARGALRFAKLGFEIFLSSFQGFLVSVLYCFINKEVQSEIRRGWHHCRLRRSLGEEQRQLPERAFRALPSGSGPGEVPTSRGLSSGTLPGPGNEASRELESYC

hGLP-1R [2] = biological target: T2, hGLP-1R (Homo sapiens, UniProt P43220); test: Functional cAMP activity in the presence of 1% HSA; details: read-out: cAMP Rel EC50, hGLP-1R
human GcgR = human GcgR (Homo sapiens, UniProt P47871); test: Functional cAMP activity in the presence of 1% HSA; details: read-out: cAMP Rel EC50, hGcgR
hGIPR [3] = biological target: T1, hGIPR; test: Functional cAMP activation in the presence of 0.1% casein (no HSA); details: read-out: Relative cAMP EC50, hGIPR;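 on Relative cAMP EC50, hGIPR: intracellular cAMP rise after 30 min at 37 °C read by HTRF against a standard curve, scaled between buffer alone (0%) and top control ligand concentration (100%), four-parameter fit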;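 on Relative cAMP EC50, hGLP-1R: intracellular cAMP rise after 30 min at 37 °C read by HTRF, normalized between buffer only (0%) and maximal control ligand (100%), four-parameter variable-slope fit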;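 on Relative cAMP EC50, hGcgR: intracellular cAMP rise after 30 min at 37 °C, read by HTRF against a cAMP standard curve, scaled from buffer only (0%) to maximal control ligand response (100%)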
hGLP-1R [4] = biological target: T2, hGLP-1R; test: as above; details: read-out: Relative cAMP EC50, hGLP-1R
hGcgR = hGcgR (Homo sapiens, UniProt P47871); test: as above; details: read-out: Relative cAMP EC50, hGcgR;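 further: intracellular cAMP rise after 30 min at 37 °C, read by HTRF against a cAMP standard curve, scaled from buffer only (0%) to maximal control ligand response (100%)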
[5] = 0.1% casein, no HSA, geometric mean
[6] = HEK-293 clonal cell line, 1% HSA, geometric mean of relative EC50
[7] = in the presence of 0.1% casein (no HSA), geometric mean of relative EC50

human GcgR, sequence (P47871 26-477): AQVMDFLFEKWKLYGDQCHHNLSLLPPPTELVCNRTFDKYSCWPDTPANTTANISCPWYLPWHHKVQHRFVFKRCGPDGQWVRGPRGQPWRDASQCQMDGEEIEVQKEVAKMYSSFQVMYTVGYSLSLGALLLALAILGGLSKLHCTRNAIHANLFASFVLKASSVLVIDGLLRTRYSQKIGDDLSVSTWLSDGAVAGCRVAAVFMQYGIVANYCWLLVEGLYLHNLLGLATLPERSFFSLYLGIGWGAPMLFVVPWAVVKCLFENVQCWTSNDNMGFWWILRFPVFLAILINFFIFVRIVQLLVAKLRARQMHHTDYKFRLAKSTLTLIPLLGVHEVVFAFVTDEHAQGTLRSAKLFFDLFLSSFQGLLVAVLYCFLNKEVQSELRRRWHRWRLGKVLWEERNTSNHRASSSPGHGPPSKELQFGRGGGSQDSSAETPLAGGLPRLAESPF
hGcgR, sequence (P47871 26-477): as above
T2 sequence (P43220 24-463): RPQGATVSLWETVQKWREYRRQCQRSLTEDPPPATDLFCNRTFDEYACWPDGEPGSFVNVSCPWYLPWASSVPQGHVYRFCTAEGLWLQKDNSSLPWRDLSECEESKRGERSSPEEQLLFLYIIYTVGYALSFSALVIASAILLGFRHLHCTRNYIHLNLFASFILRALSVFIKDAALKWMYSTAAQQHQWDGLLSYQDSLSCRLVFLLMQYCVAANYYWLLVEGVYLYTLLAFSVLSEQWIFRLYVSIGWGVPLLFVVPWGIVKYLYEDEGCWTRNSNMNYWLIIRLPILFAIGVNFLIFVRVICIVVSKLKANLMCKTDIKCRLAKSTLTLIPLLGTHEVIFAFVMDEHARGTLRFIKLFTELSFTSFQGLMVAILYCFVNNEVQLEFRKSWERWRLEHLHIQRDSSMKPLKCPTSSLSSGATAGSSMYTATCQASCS

Substance | EC50 (hGIPR [1]) [nM] | EC50 (hGLP-1R [2]) [nM] | EC50 (human GcgR) [nM] | EC50 (hGIPR [3]) [nM] | EC50 (hGLP-1R [4]) [nM] | EC50 (hGcgR) [nM] | EC50 (hGIPR [3]; [5]) [nM] | EC50 (hGLP-1R [4]; [5]) [nM] | EC50 (hGcgR; [5]) [nM] | EC50 (hGIPR [1]; [6]) [nM] | EC50 (hGLP-1R [2]; [6]) [nM] | EC50 (human GcgR; [6]) [nM] | EC50 (hGIPR [3]; [7]) [nM] | EC50 (hGLP-1R [4]; [7]) [nM] | EC50 (hGcgR; [7]) [nM]
H-Y[Aib]QGT[αMePhe(2-F)]TSD[4Pal]SI[αMeL]LD[Orn]K([γGlu-γGlu-C18 diacid])AQ[αMe4Pal][Orn]FI[dE][αMeY]LIEGGPSSGEPPPSGE-NH2 [Example 682] | 0.415 | 14 | 127 | 0.00661 | 0.212 | 1.91 | – | – | – | – | – | – | – | – | –
H-Y[Aib]QGT[αMePhe(2-F)]TSD[4Pal]SI[αMeL]LD[Orn][Orn]([γGlu-γGlu-C18 diacid])AQ[αMe4Pal][Orn]FI[dE][αMeY]LIEGGPSSGEPPPETE-NH2 [Example 1209] | 0.565 | 37.7 | 124 | – | – | – | 0.00819 | 0.41 | 0.97 | – | – | – | – | – | –
H-Y[Aib]QGT[αMePhe(2-F)]TSD[4Pal][αMeS]ILLD[Orn]K([γGlu-γGlu-C18 diacid])AQ[Aib][Orn]FI[dE]YLIEGGPSSGEPPPEGAEE-NH2 [Example 604] | 4.84 | 51 | 427 | 0.161 | 0.705 | 5.5 | – | – | – | – | – | – | – | – | –
H-Y[Aib]QGT[αMePhe(2-F)]TSD[4Pal][αMeS]ILLD[Orn]K([γGlu-γGlu-C18 diacid])AQ[Aib][Orn]FI[dE]YLIEGGPSSGEPPPEGSEE-NH2 [Example 603] | 4.99 | 49.5 | 419 | 0.102 | 0.688 | 5.43 | – | – | – | – | – | – | – | – | –
H-Y[Aib]QGT[αMePhe(2-F)]TSD[4Pal][αMeS]ILLD[Orn]K([γGlu-γGlu-C18 diacid])AQ[Aib][Orn]FI[dE]YLIEGGPSSGEPPPEGTEE-NH2 [Example 556] | 5.51 | 47.4 | 366 | 0.0866 | 0.561 | 4.14 | – | – | – | – | – | – | – | – | –
H-Y[Aib]QGT[αMePhe(2-F)]TSD[4Pal][αMeS]ILLD[Orn]K([γGlu-γGlu-C18 diacid])AQ[Aib][Orn]FI[dE]YLIEGGPSSGEPPPEGTEEE-NH2 [Example 577] | 10 | 81.8 | 937 | 0.103 | 0.931 | 6.47 | – | – | – | – | – | – | – | – | –
H-Y[Aib]QGT[αMePhe(2-F)]TSD[4Pal][αMeS]ILLD[Orn]K([γGlu-γGlu-C18 diacid])AQ[Aib][Orn]FI[dE]YLIEGGPSSGEPPPSGTE-NH2 [Example 531] | 5.2 | 37.8 | 465 | 0.0694 | 0.356 | 3.79 | – | – | – | – | – | – | – | – | –
H-Y[Aib]QGT[αMePhe(2-F)]TSD[4Pal][αMeS]ILLD[Orn]K([γGlu-γGlu-C18 diacid])AQ[Aib][Orn]FI[dE]YLIEGGPSSGEPPPSGTEE-NH2 [Example 576] | 8.12 | 56.8 | 646 | 0.0723 | 0.528 | 6.37 | – | – | – | – | – | – | – | – | –
H-Y[Aib]QGT[αMePhe(2-F)]TSD[4Pal][αMeS]ILLD[Orn]K([γGlu-γGlu-C18 diacid])AQ[Aib][Orn]FI[dE][αMeY]LQEGGPSSGEPPPEGAEE-NH2 [Example 574] | 20.5 | 37.2 | 435 | 0.235 | 0.499 | 5.04 | – | – | – | – | – | – | – | – | –
H-Y[Aib]QGT[αMePhe(2-F)]TSD[4Pal][αMeS]ILLD[Orn]K([γGlu-γGlu-C18 diacid])AQ[Aib][Orn]FI[dE][αMeY]LQEGGPSSGEPPPSGAE-NH2 [Example 547] | 7.26 | 27.7 | 237 | 0.152 | 0.337 | 3.8 | – | – | – | – | – | – | – | – | –
H-Y[Aib]QGT[αMePhe(2-F)]TSD[4Pal][αMeS]ILLD[Orn]K([γGlu-γGlu-C18 diacid])AQ[Aib][Orn]FI[dE][αMeY]LQEGGPSSGEPPPSGAEE-NH2 [Example 575] | 16.2 | 37.1 | 484 | 0.321 | 0.438 | 3.69 | – | – | – | – | – | – | – | – | –
H-Y[Aib]QGT[αMePhe(2-F)]TSD[4Pal][αMeS]I[αMeL]LD[Orn]K([AEEA-AEEA-γGlu-C18 diacid])AQ[Aib][Orn]FIEYLIEGGPSSGAPEPSEG-NH2 [Example 492] | 0.84 | 9.85 | 128 | 0.0119 | 0.146 | 1.35 | – | – | – | – | – | – | – | – | –
H-Y[Aib]QGT[αMePhe(2-F)]TSD[4Pal][αMeS]I[αMeL]LD[Orn]K([AEEA-AEEA-γGlu-C18 diacid])AQ[Aib][Orn]FIEYLIEGGPSSGEPPPSEG-NH2 [Example 491] | 0.688 | 9.55 | 159 | 0.0126 | 0.17 | 1.58 | – | – | – | – | – | – | – | – | –
H-Y[Aib]QGT[αMePhe(2-F)]TSD[4Pal][αMeS]I[αMeL]LD[Orn]K([AEEA-AEEA-γGlu-C18 diacid])AQ[αMe4Pal]EFI[dE][αMeY]LIEGGPSSGEPPPSGS-NH2 [Example 1208] | 0.786 | 44.8 | 451 | – | – | – | 0.00907 | 0.526 | 3.52 | – | – | – | – | – | –
H-Y[Aib]QGT[αMePhe(2-F)]TSD[4Pal][αMeS]I[αMeL]LD[Orn]K([AEEA-γGlu-C18 diacid])AA[Aib]EFI[dE][αMeY]LIEGGPSSGAPPPSGEE-NH2 [Example 703] | – | – | – | – | – | – | – | – | – | 0.961 | 27.1 | 201 | 0.0101 | 0.233 | 1.56
H-Y[Aib]QGT[αMePhe(2-F)]TSD[4Pal][αMeS]I[αMeL]LD[Orn]K([AEEA-γGlu-C18 diacid])AA[Aib]EFI[dE][αMeY]LIEGGPSSGAPPPSGQ-OH [Example 722] | 0.953 | 27.2 | 170 | 0.01 | 0.252 | 1.71 | – | – | – | – | – | – | – | – | –
H-Y[Aib]QGT[αMePhe(2-F)]TSD[4Pal][αMeS]I[αMeL]LD[Orn]K([AEEA-γGlu-C18 diacid])AA[Aib]EFI[dE][αMeY]LIEGGPSSGAPPPSGTEE-NH2 [Example 725] | 1.39 | 29.1 | 244 | 0.0126 | 0.258 | 1.49 | – | – | – | – | – | – | – | – | –
H-Y[Aib]QGT[αMePhe(2-F)]TSD[4Pal][αMeS]I[αMeL]LD[Orn]K([AEEA-γGlu-C18 diacid])AA[Aib]EFI[dE][αMeY]LIEGGPSSGAPPPSGTEQ-OH [Example 726] | 1.22 | 33.3 | 226 | 0.013 | 0.247 | 1.71 | – | – | – | – | – | – | – | – | –
H-Y[Aib]QGT[αMePhe(2-F)]TSD[4Pal][αMeS]I[αMeL]LD[Orn]K([AEEA-γGlu-C18 diacid])AA[Aib]EFI[dE][αMeY]LIEGGPSSGAPPPSGTGQ-OH [Example 724] | 1.06 | 26.4 | 209 | 0.0102 | 0.256 | 1.74 | – | – | – | – | – | – | – | – | –
H-Y[Aib]QGT[αMePhe(2-F)]TSD[4Pal][αMeS]I[αMeL]LD[Orn]K([AEEA-γGlu-C18 diacid])AA[Aib]EFI[dE][αMeY]LIEGGPSSGAPPPSG[dE]-NH2 [Example 721] | 1.19 | 27.1 | 183 | 0.00774 | 0.233 | 1.78 | – | – | – | – | – | – | – | – | –
H-Y[Aib]QGT[αMePhe(2-F)]TSD[4Pal][αMeS]I[αMeL]LD[Orn]K([AEEA-γGlu-C18 diacid])AA[Aib]EFI[dE][αMeY]LIEGGPSSGEPPPSGGGE-NH2 [Example 746] | 1.44 | 38.6 | 255 | 0.0119 | 0.261 | 1.62 | – | – | – | – | – | – | – | – | –
H-Y[Aib]QGT[αMePhe(2-F)]TSD[4Pal][αMeS]I[αMeL]LD[Orn]K([AEEA-γGlu-C18 diacid])AA[Aib]EFI[dE][αMeY]LLEGGPSSGAPPPSGS-NH2 [Example 672] | 1.53 | 49.4 | 162 | 0.014 | 0.389 | 1.19 | – | – | – | – | – | – | – | – | –
H-Y[Aib]QGT[αMePhe(2-F)]TSD[4Pal][αMeS]I[αMeL]LD[Orn]K([AEEA-γGlu-C18 diacid])AA[Aib]EFI[dE][αMeY]LVEGGPSSGAPPPSGS-NH2 [Example 693] | 1.1 | 18 | 304 | 0.0104 | 0.161 | 2.39 | – | – | – | – | – | – | – | – | –
